Source: US20170182031A1, “REDUCING DRUG LIKING IN A SUBJECT” (Purdue Pharma, priority 2014, published 2017)
Where two headings read alike, the source gives them in different places.

Columns and labels:
[1] = cited from earlier work

## C=CCN1CC[C@]23c4c5ccc(O)c4O[C@H]2C(=O)CC[C@@]3(O)[C@H]1C5 [naloxone]
Naloxone 1.875 μg/kg IV
  Time by which mean plasma naloxone concentration was BLQ: ≤ 15 min
Naloxone 15 μg/kg IV
  Time by which mean plasma naloxone concentration was BLQ: ≤ 120 min
post-infusion, each treatment
  Time of maximum mean plasma naloxone concentration: 5 min
[1]
  oral bioavailability: < 3%
